Data as given in patent US11696922B2, “Nanoparticle to target cancer” (Georgetown University, priority 2016, dated 2023).

Test system: gastrin mRNA
Assay: Gastrin mRNA decrease by gastrin siRNA si286
Type: cell-based

## GUGCUGAGGAUGAGAACUA (listed as RNA, chemistry not given here) [si286]
  decrease of gastrin mRNA: 90%
